In US20080207527A1, “Bicyclic Compounds Which Inhibit Beta-Secretase Activity and Methods of Use Thereof” (CoMentis, Inc., priority 2004, published 2008):

Experiments:
memapsin 2 = memapsin 2 (Homo sapiens, UniProt P56817); assay: Inhibition of memapsin 2 beta-secretase activity toward fluorogenic substrate FS-2; assay type: biochemical; conditions: pH 4, 37° C., 20 minutes pre-incubation, read-out: M2 Ki
Procedure: Potency of compounds were determined by measurement of their inhibition of memapsin 2 activity toward a fluorescent substrate. […] Briefly, assays were performed at pH 4, 37° C., by pre-incubation of memapsin 2 enzyme with compound for 20 minutes. Activity measure was initiated by addition of a fluorogenic substrate FS-2 (Bachem Americas, Torrance, Calif.). Fluorescent signal increase over time was measured as a rate of hydrolysis of the peptide substrate.

Aβ production = assay: Cellular Aβ IC50 determination (Aβ40 sandwich ELISA); assay type: cell-based; conditions: Cricetulus griseus, Chinese hamster ovary cells over-expressing human APP695 with London and Swedish mutations, 24 h
Procedure: The potency of compounds against memapsin 2 activity was determined in a cellular assay of Aβ production. […] Chinese hamster ovary cells that over-express human APP695 with the London and Swedish mutations were seeded in multi-well plates at 10% confluency. Compounds were dissolved in DMSO to concentrations near 1 mM, and diluted into culture media to a final concentration near 4 μM (final 0.4% DMSO). Compounds were diluted serially and applied to cells in multi-well plates 48 h after seeding. Incubation was continued in 5% CO2 at 37 degrees C. for 24 h. Aliquots were removed and assayed for Aβ40 content using a sandwich ELISA (BioSource International). Amount of Aβ40 over the range of concentration of compounds, relative to control incubations, were fit to a 4-parameter IC50 model.

memapsin 2, sequence (P56817 46-501): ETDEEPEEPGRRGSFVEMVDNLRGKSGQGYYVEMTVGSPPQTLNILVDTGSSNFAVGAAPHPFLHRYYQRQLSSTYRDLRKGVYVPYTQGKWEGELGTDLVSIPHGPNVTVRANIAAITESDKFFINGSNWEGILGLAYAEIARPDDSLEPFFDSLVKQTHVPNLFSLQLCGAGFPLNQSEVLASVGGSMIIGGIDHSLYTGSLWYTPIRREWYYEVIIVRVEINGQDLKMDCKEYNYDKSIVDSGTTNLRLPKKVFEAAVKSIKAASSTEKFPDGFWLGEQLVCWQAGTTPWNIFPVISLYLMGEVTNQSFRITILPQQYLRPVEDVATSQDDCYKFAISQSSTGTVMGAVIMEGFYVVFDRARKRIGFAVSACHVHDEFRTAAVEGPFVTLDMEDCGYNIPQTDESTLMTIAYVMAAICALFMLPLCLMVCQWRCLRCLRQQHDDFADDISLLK

With `CC(C)CNC(=O)C(NC(=O)C(C)CC(O)C(CC(C)C)NC(=O)c1cc(OCC(O)CN=[N+]=[N-])cc(C(=O)NC(C)c2ccccc2)c1)C(C)C` (stereo not drawn) [5-(3-azido-2-hydroxypropoxy)-N1-(5-hydroxy-8-(1-(isobutylamino)-3-methyl-1-oxobutan-2-ylamino)-2,7-dimethyl-8-oxooctan-4-yl)-N3-(1-phenylethyl)isophthalamide] the Ki (memapsin 2) was 405 to 2000 nM.
Work on `CC(C)CC(NC(=O)c1cc(C(=O)NC(CO)c2ccccc2)cc(N(C)S(C)(=O)=O)c1)C(O)CC(C)C(=O)NC(C(=O)NC(C)C)C(C)C` (stereo not drawn) [N1-(2-hydroxy-1-phenylethyl)-N3-(5-hydroxy-8-(1-(isopropylamino)-3-methyl-1-oxobutan-2-ylamino)-2,7-dimethyl-8-oxooctan-4-yl)-5-(N-methylmethylsulfonamido)isophthalamide] yielded a Ki (memapsin 2) of 405 to 2000 nM and an IC50 (Aβ production) of over 20000 nM.
With `CC(C)CC(NC(=O)c1cc(C(=O)NC(C)c2ccccc2)cc(N(C)S(C)(=O)=O)c1)C(O)CC(C)C(=O)NC(C(=O)NCC1CN(C)C1)C(C)C` (stereo not drawn) [N1-(5-hydroxy-2,7-dimethyl-8-(3-methyl-1-((1-methylazetidin-3-yl)methylamino)-1-oxobutan-2-ylamino)-8-oxooctan-4-yl)-5-(N-methylmethylsulfonamido)-N3-(1-phenylethyl)isophthalamide] the Ki (memapsin 2) was under 405 nM and the IC50 (Aβ production) was under 5000 nM.
For `CC(C)CC(NC(=O)c1cc(C(=O)NC(C)c2ccccc2)cc(N(C)S(C)(=O)=O)c1)C(O)CC(C)C(=O)NC(C(=O)NCC1CCN(C)CC1)C(C)C` (stereo not drawn) [N1-(5-hydroxy-2,7-dimethyl-8-(3-methyl-1-((1-methylpiperidin-4-yl)methylamino)-1-oxobutan-2-ylamino)-8-oxooctan-4-yl)-5-(N-methylmethylsulfonamido)-N3-(1-phenylethyl)isophthalamide], the Ki (memapsin 2) was under 405 nM and the IC50 (Aβ production) was under 5000 nM.
Compound `CC(C)CNC(=O)C(NC(=O)C(C)CC(O)C(CC(C)C)NC(=O)c1cc(OCC2CNC(=O)O2)cc(C(=O)NC(C)c2ccccc2)c1)C(C)C` (stereo not drawn) [N1-(5-hydroxy-8-(1-(isobutylamino)-3-methyl-1-oxobutan-2-ylamino)-2,7-dimethyl-8-oxooctan-4-yl)-5-((2-oxooxazolidin-5-yl)methoxy)-N3-(1-phenylethyl)isophthalamide] has a Ki (memapsin 2) of under 405 nM.
For `CC(=O)N(C)c1cc(C(=O)NC(C)c2ccccc2)cc(C(=O)NC(CC(C)C)C(O)CC(C)C(=O)NC(C(=O)NCC(C)C)C(C)C)c1` (stereo not drawn) [N1-(5-hydroxy-8-(1-(isobutylamino)-3-methyl-1-oxobutan-2-ylamino)-2,7-dimethyl-8-oxooctan-4-yl)-5-(N-methylacetamido)-N3-(1-phenylethyl)isophthalamide], the Ki (memapsin 2) was under 405 nM and the IC50 (Aβ production) was 5000 to 10000 nM.
In the case of `CNS(=O)(=O)c1cc(C(=O)NC(C)c2ccccc2)cc(C(=O)NC(CC(C)C)C(O)CC(C)C(=O)NC(C(=O)NCC(C)C)C(C)C)c1` (stereo not drawn) [N1-(5-hydroxy-8-(1-(isobutylamino)-3-methyl-1-oxobutan-2-ylamino)-2,7-dimethyl-8-oxooctan-4-yl)-5-(N-methylsulfamoyl)-N3-(1-phenylethyl)isophthalamide], the Ki (memapsin 2) is reported as under 405 nM and the IC50 (Aβ production) is reported as 5000 to 10000 nM.
Compound `Cc1cc(C(=O)NC(CC(C)C)C(O)CC(C)C(=O)NC(C(=O)NCC(C)C)C(C)C)cc(C(=O)N(C)Cc2ccccn2)c1` (stereo not drawn) [N1-(5-hydroxy-8-(1-(isobutylamino)-3-methyl-1-oxobutan-2-ylamino)-2,7-dimethyl-8-oxooctan-4-yl)-N3,5-dimethyl-N3-(pyridin-2-ylmethyl)isophthalamide] has a Ki (memapsin 2) of under 405 nM and an IC50 (Aβ production) of over 20000 nM.
With `Cc1cc(C(=O)NC(CC(C)C)C(O)CC(C)C(=O)NC(C(=O)NCC(C)C)C(C)C)cc(C(=O)N(C)Cc2cccnc2)c1` (stereo not drawn) [N1-(5-hydroxy-8-(1-(isobutylamino)-3-methyl-1-oxobutan-2-ylamino)-2,7-dimethyl-8-oxooctan-4-yl)-N3,5-dimethyl-N3-(pyridin-3-ylmethyl)isophthalamide] the Ki (memapsin 2) was under 405 nM and the IC50 (Aβ production) was 10000 to 20000 nM.
`CC(C)CNC(=O)C(NC(=O)C(C)CC(O)C(CC(C)C)NC(=O)c1cccc(C(=O)N(C)Cc2cccc(O)c2)c1)C(C)C` (stereo not drawn) [N1-(5-hydroxy-8-(1-(isobutylamino)-3-methyl-1-oxobutan-2-ylamino)-2,7-dimethyl-8-oxooctan-4-yl)-N3-(3-hydroxybenzyl)-N3-methylisophthalamide] gave a Ki (memapsin 2) of 405 to 2000 nM and an IC50 (Aβ production) of over 20000 nM.
For `COc1cccc(CN(C)C(=O)c2cccc(C(=O)NC(CC(C)C)C(O)CC(C)C(=O)NC(C(=O)NCC(C)C)C(C)C)c2)c1` (stereo not drawn) [N1-(5-hydroxy-8-(1-(isobutylamino)-3-methyl-1-oxobutan-2-ylamino)-2,7-dimethyl-8-oxooctan-4-yl)-N3-(3-methoxybenzyl)-N3-methylisophthalamide], the Ki (memapsin 2) was 405 to 2000 nM and the IC50 (Aβ production) was over 20000 nM.
`Cc1csc(CN(C(=O)c2cccc(C(=O)NC(CC(C)C)C(O)CC(C)C(=O)NC(C(=O)NCC(C)C)C(C)C)c2)C(C)C)n1` (stereo not drawn) [N1-(5-hydroxy-8-(1-(isobutylamino)-3-methyl-1-oxobutan-2-ylamino)-2,7-dimethyl-8-oxooctan-4-yl)-N3-isopropyl-N3-((4-methylthiazol-2-yl)methyl)isophthalamide] was tested, and the Ki (memapsin 2) was under 405 nM.
With `CC(C)CNC(=O)C(NC(=O)C(C)CC(O)C(CC(C)C)NC(=O)c1cc(C(=O)N(C)Cc2ccncc2)cc(N(C)S(C)(=O)=O)c1)C(C)C` (stereo not drawn) [N1-(5-hydroxy-8-(1-(isobutylamino)-3-methyl-1-oxobutan-2-ylamino)-2,7-dimethyl-8-oxooctan-4-yl)-N3-methyl-5-(N-methylmethylsulfonamido)-N3-(pyridin-4-ylmethyl)isophthalamide] the Ki (memapsin 2) was under 405 nM and the IC50 (Aβ production) was over 20000 nM.
Work on `Cc1nc(CN(C)C(=O)c2cccc(C(=O)NC(CC(C)C)C(O)CC(C)C(=O)NC(C(=O)NCC(C)C)C(C)C)c2)cs1` (stereo not drawn) [N1-(5-hydroxy-8-(1-(isobutylamino)-3-methyl-1-oxobutan-2-ylamino)-2,7-dimethyl-8-oxooctan-4-yl)-N3-methyl-N3-((2-methylthiazol-4-yl)methyl)isophthalamide] yielded a Ki (memapsin 2) of under 405 nM.
`CC(C)CC(NC(=O)c1cc(C(=O)NC(C)c2ccccc2)cc(N(C)S(C)(=O)=O)c1)C(O)CC(C)C(=O)NC(C(=O)NC(C)C)C(C)C` (stereo not drawn) [N1-(5-hydroxy-8-(1-(isopropylamino)-3-methyl-1-oxobutan-2-ylamino)-2,7-dimethyl-8-oxooctan-4-yl)-5-(N-methylmethylsulfonamido)-N3-(1-phenylethyl)isophthalamide] gave an IC50 (Aβ production) of under 5000 nM.
Compound `COc1cccc(CNC(=O)CNC(=O)C(C)CC(O)C(CC(C)C)NC(=O)c2cc(C(=O)NC(C)c3ccccc3)cc(N(C)S(C)(=O)=O)c2)c1` (stereo not drawn) [N1-(5-hydroxy-8-(2-(3-methoxybenzylamino)-2-oxoethylamino)-2,7-dimethyl-8-oxooctan-4-yl)-5-(N-methylmethylsulfonamido)-N3-(1-phenylethyl)isophthalamide] has a Ki (memapsin 2) of 405 to 2000 nM.
For `CCCN(CCC)C(=O)c1cccc(C(=O)NC(CC(C)C)C(O)CC(C)C(=O)NCC(C)C)c1` (stereo not drawn) [N1-(5-hydroxy-8-(isobutylamino)-2,7-dimethyl-8-oxooctan-4-yl)-N3,N3-dipropylisophthalamide], the Ki (memapsin 2) was 2000 to 5000 nM.
`CCc1csc(CNC(=O)c2cc(C(=O)NC(CC(C)C)C(O)CC(C)C(=O)NC(C(=O)NCC(C)C)C(C)C)cc(N(C)S(C)(=O)=O)c2)n1` (stereo not drawn) [N1-((4-ethylthiazol-2-yl)methyl)-N3-(5-hydroxy-8-(1-(isobutylamino)-3-methyl-1-oxobutan-2-ylamino)-2,7-dimethyl-8-oxooctan-4-yl)-5-(N-methylmethylsulfonamido)isophthalamide] was tested, and the Ki (memapsin 2) was under 405 nM.
`CC(C)CC(NC(=O)c1cc(C(=O)NCc2ccccc2)cc(N(C)S(C)(=O)=O)c1)C(O)CC(C)C(=O)NC(C(=O)NC(C)C)C(C)C` (stereo not drawn) [N1-benzyl-N3-(5-hydroxy-8-(1-(isopropylamino)-3-methyl-1-oxobutan-2-ylamino)-2,7-dimethyl-8-oxooctan-4-yl)-5-(N-methylmethylsulfonamido)isophthalamide] gave an IC50 (Aβ production) of 5000 to 10000 nM.
`CCCN(CCC)C(=O)c1cncc(C(=O)NC(CC(C)C)C(O)CC(C)C(=O)NC(C(=O)NC(C)C)C(C)C)c1` (stereo not drawn) [N3-(5-hydroxy-8-(1-(isopropylamino)-3-methyl-1-oxobutan-2-ylamino)-2,7-dimethyl-8-oxooctan-4-yl)-N5,N5-dipropylpyridine-3,5-dicarboxamide] gave a Ki (memapsin 2) of under 405 nM.
`CCN(Cc1ccncc1)C(=O)c1cncc(C(=O)NC(CC(C)C)C(O)CC(C)C(=O)NC(C(=O)NCC(C)C)C(C)C)c1` (stereo not drawn) [N3-ethyl-N5-(5-hydroxy-8-(1-(isobutylamino)-3-methyl-1-oxobutan-2-ylamino)-2,7-dimethyl-8-oxooctan-4-yl)-N3-(pyridin-4-ylmethyl)pyridine-3,5-dicarboxamide] showed a Ki (memapsin 2) of over 5000 nM.
Compound `CC(C)CC(NC(=O)c1cc(C(=O)NC(C)c2ccccc2)cc(N(C)S(C)(=O)=O)c1)C(O)CC(NC(=O)OCc1ccccc1)C(=O)NC(C(=O)NC(C)C)C(C)C` (stereo not drawn) [benzyl 4-hydroxy-1-(1-(isopropylamino)-3-methyl-1-oxobutan-2-ylamino)-7-methyl-5-(3-(N-methylmethylsulfonamido)-5-(1-phenylethylcarbamoyl)benzamido)-1-oxooctan-2-ylcarbamate] has a Ki (memapsin 2) of 405 to 2000 nM.
Compound `CCCN(CCC)C(=O)c1cc(NC(=O)OC(C)(C)C)cc(C(=O)NC(CC(C)C)C(O)CC(OC)C(=O)NC(C(=O)NC(C)C)C(C)C)c1` (stereo not drawn) [tert-butyl 3-(dipropylcarbamoyl)-5-(5-hydroxy-8-(1-(isopropylamino)-3-methyl-1-oxobutan-2-ylamino)-7-methoxy-2-methyl-8-oxooctan-4-ylcarbamoyl)phenylcarbamate] has a Ki (memapsin 2) of over 5000 nM.
